Reference: publication PMC9228955, “Synthesis, Physicochemical, Labeling and In Vivo Characterization of ^44Sc-Labeled DO3AM-NI as a Hypoxia-Sensitive PET Probe” (Pharmaceuticals, 2022)
Like-named read-outs stand apart in the source and are kept apart here.

Key:
[1] = 25 °C, cited from earlier work
[2] = Stability constant of Sc(III) complex by 1H and 45Sc NMR batch samples and pH-potentiometric titration; pSc calculation; format: physicochemical; conditions: for pSc (-log[Sc(III)]free): [Sc(III)]tot = 1 × 10^−8 M, [L]tot = 1 × 10^−7 M, pH = 7.4
Procedure: The stability constant of the Sc(DO3AM-NI) complex was assessed by ^1H and ^45Sc-NMR studies using samples prepared in the 0.055–0.195 M acid concentration range. […] Absence of protonation and the presence of a ternary hydroxydo species formation with KScL•OH = 10.88(5) were detected at our experimental conditions. The NMR samples contained 3.32 mM ligand, ScCl3 and a constant ionic strength of 0.15 M NaCl. The samples were thermostated at 37 °C, and their ^1H- and ^45Sc-NMR spectra were recorded after 60 days. In order to ensure that the equilibrium in the samples was attained, the ^1H and ^45Sc-NMR measurements were repeated again 90 days later. The spectra were practically identical with the spectra recorded at 60 days (Figures S4 and S5). As expected, the thermodynamic stability constant of the Sc(DO3AM-NI) complex (log KScL = 22.36(4)) was considerably lower than those of Sc(III) complexes formed with DOTA, DTPA or AAZTA ligands (Table 1). A moderate decrease in terms of thermodynamic stability constants was already observed for the complexes of DO3A-monamides formed with Gd(III) ions in comparison to the stability of parent Gd(DOTA)^− chelate. Despite the lower stability constant of the complex, the Sc(III) ion was complexed completely around pH = 2.0 (in a millimolar concentration range, see Figure 2). However, it might be misleading to directly compare the stability constants of the complexes formed by ligands of different basicity (as it depends on the basicity of the ligand); therefore, we calculated and compared the pSc values (which could be treated as conditional constants) for the complexes shown in Table 1 by taking the protonation constants of ligands, the stability constants of the complex species present in solution and the hydrolysis of the Sc(III) ion (according to Ref. [23]: log βSc(OH) = −4.3, log βSc(OH)2 = −9.7, log βSc(OH)3 = −16.1, log βSc(OH)4 = −26.0 and log βSc2(OH)4 = −6.0) into account.
(§1) The equilibrium measurements were performed at constant ionic strength maintained by 0.15 M NaCl at 37 °C. For determining the protonation constants of DO3AM-NI, two parallel pH-potentiometric titrations were performed with 0.1611 M NaOH in a 5.00 cm^3 sample containing the ligand at the concentration of 2.76 mM. The stability constant of Sc(DO3AM-NI) was assessed by ^1H and ^45Sc NMR in 0.7 mL “batch” samples containing the metal and the ligand at 3.32 mM and different concentrations of strong acid (0.05–0.20 M) aged 90 days (see below). The formation of protonated and ternary hydroxydo complex species was probed by pH-potentiometric titration by titrating the preformed complex (at a concentration of 1.95 mM) with standardized NaOH solution. For the calculation of the logKMH-1L value, the VNaOH–pH data used were obtained in the pH range 1.68–11.85. The pH-potentiometric titrations were carried out with a Metrohm 785 DMP Titrino titration workstation with the use of a Metrohm-6.0233.100-combined electrode calibrated via a two-point calibration routine using KH-phthalate (pH = 4.005) and borax (pH = 9.177) buffers. The titrated samples were stirred with a magnetic stirrer, and N2 gas was bubbled through the solutions to avoid the effect of CO2. For the calculation of [H^+] from the measured pH values, the method proposed by Irving et al. was applied. For this, a 0.01M HCl solution was titrated with the standardized NaOH solution in the presence of 0.15 M NaCl ionic strength at 37 °C. The differences between the measured (pHread) and calculated pH (-log[H^+]) values were used to obtain the equilibrium H^+ concentration from the pHmeas values during the titrations. […] For the calculation of the equilibrium constants, the PSEQUAD program was used.
^1H- and ^45Sc-NMR measurements (400 MHz and 97 MHz, respectively) were performed with a Bruker DRX 400 (9.4 T) spectrometer equipped with a Bruker VT-1000 thermocontroller and a BB inverse z-gradient probe (5 mm). […]

[3] = 25 °C, cited from earlier work; remark: listed apart in the source
[4] = pH-potentiometric determination of ligand protonation constants; format: physicochemical; conditions: 0.15 M NaCl, 37 °C
Procedure: Equilibrium measurements were commenced by determining the protonation constants of the ligand, measured at 37 °C (I = 0.15 M NaCl) owing to the relevance of the chelate under in vivo conditions. The protonation constants obtained by fitting the pH-potentiometric data for the ligand DO3AM-NI are shown in Table 1 along with the literature data published for DOTA and certain DO3A-monoamides (DO3A-mono-N-buthylamide as well as that of a hypoxia-sensitive MRI probe reported by some of us a couple of years ago). Five protonation steps were observed by performing the titration in the pH range of 1.72–11.85 for the DO3AM-NI monoamide type ligand, two of which (characterized by high constants) describe the protonation of nitrogen atoms in the macrocycle (positioned trans- to each other), while the remaining log Ki^H values (much lower) likely reflect the protonation of the carboxylates. The replacement of an acetate group of DOTA by an amide moiety results in a decrease in the protonation sites of the ligand, and as a consequence the overall basicity of the ligand (expressed as the sum of the protonation constants, log β015) was as expected, predicted from the data published in literature. What is more, the formation of a weak Na^+ complex (originating from the ionic strength) competing with the first protonation process may be responsible of the lower value of the first protonation constant.
as §1

[5] = constants at 0.1 M Me4NCl, 25 °C from Ref. 19

## O=C(O)CN1CCN(CC(=O)O)CCN(CC(=O)O)CCN(CC(=O)O)CC1 [DOTA, 1,4,7,10-tetraazacyclododecane-1,4,7,10-tetraacetic acid]
[1]; 0.1 M Me4NCl
  log K1^H: 12.90
  log K2^H: 9.72
  log K3^H: 4.62
  log K4^H: 4.15
  log K5^H: 2.29
  log K6^H: 1.34
  log β015 (sum of the protonation constants): 33.68
[2]; [5]
  pSc (-log[Sc(III)]free): 23.92
[3]; 0.1 M Me4NCl
  log KScL•H (protonation constant of Sc(III) complex): 1.00
  log KSc•L (stability constant of Sc(III) complex): 30.79

## O=C(O)CN1CCN(CC(=O)O)CCN(CC(=O)NCCn2ccnc2[N+](=O)[O-])CCN(CC(=O)O)CC1 [DO3AM-NI]
[2]; 0.15 M NaCl, 37 °C
  log KScL•OH (ternary hydroxydo species): 10.88(5)
  log KSc•L (stability constant of Sc(III) complex): 22.36(4)
[2]; constants at 0.15 M NaCl, 37 °C
  pSc (-log[Sc(III)]free): 20.74
[4]
  log K1^H: 8.79(1)
  log K2^H: 8.59(1)
  log K3^H: 4.23(1)
  log K4^H: 2.49(1)
  log K5^H: 1.00(4)
  log β015 (sum of the protonation constants): 25.10

## O=C(O)CN(CCN(CC(=O)O)CC(=O)O)CCN(CC(=O)O)CC(=O)O [DTPA]
[1]; 0.1 M Me4NCl
  log K1^H: 10.65
  log K2^H: 8.66
  log K3^H: 4.36
  log K4^H: 2.82
  log K5^H: 2.03
  log K6^H: 1.31
  log K7^H: 1.30
  log β015 (sum of the protonation constants): 28.52
[2]; [5]
  pSc (-log[Sc(III)]free): 23.88
[3]; 0.1 M Me4NCl
  log KScL•H (protonation constant of Sc(III) complex): 1.36
  log KScL•OH (ternary hydroxydo species): 12.44
  log KSc•L (stability constant of Sc(III) complex): 27.43

## CC1(N(CC(=O)O)CC(=O)O)CN(CC(=O)O)CCN(CC(=O)O)C1 [AAZTA]
[1]; 0.1 M KCl
  log K1^H: 11.26
  log K2^H: 6.62
  log K3^H: 3.86
  log K4^H: 2.45
  log K5^H: 1.88
  log K6^H: 1.46
[2]; constants at 0.1 M KCl, 25 °C from Ref. 20
  pSc (-log[Sc(III)]free): 24.72
[3]; 0.1 M KCl
  log KScL•H (protonation constant of Sc(III) complex): 0.86
  log KSc•L (stability constant of Sc(III) complex): 27.69

## CCCCNC(=O)CN1CCN(CC(=O)O)CCN(CC(=O)O)CCN(CC(=O)O)CC1 [DO3AM^nBu, DO3A-mono-N-buthylamide]
[1]; 1.0 M KCl
  log K1^H: 9.78
  log K2^H: 9.05
  log K3^H: 4.53
  log K4^H: 3.17
  log K5^H: 2.19
  log β015 (sum of the protonation constants): 28.72
